# Test system: motoneurons plated on astrocyte monolayers
# Assay: Potentiation effect on the stimulation of the trophic motoneuron activity (SIN-1 treated astrocyte monolayers)
# Assay type: cell-based, rat
# Settings: SIN-1 2 mM, 1 hour on astrocyte monolayers
# Procedure: The cultures enriched in motoneurons are prepared using the centrifugation method described by R. L. Schnaar and A. E. Schaffner, J. Neurosci., 1, 204-217 (1981) and modified by W. Camu and C. E. Henderson, J. Neurosci. Methods, 44, 59-70 (1992). Spinal cords from E15 rat embryos are dissected sterilely and the spinal notochords are removed. They are then cut up and incubated for 15 minutes at 37° C. in PBS (phosphate buffered saline: 137 mM NaCl, 2.68 mM KCl, 6.45 mM Na2HPO4, 1.47 mM KH2PO4) to which 0.05% of trypsin has been added. The dissociation of the cells is completed by trituration with the end of a 1 ml pipette in the culture medium supplemented with bovine serum albumin (BSA) and with DNAase. The cell suspension is spread onto a band of 6.5% weight/volume metrizamide in L15 medium (sold by Gibco BRL) and centrifuged at 500 g for 15 minutes. The band of the interface containing the motoneurons is recovered. […]
# The number of motoneurons is evaluated by counting labeled cells in a surface area of 1.44 cm^2 under a microscope giving a 200-fold magnification. The values are expressed as a number of motoneurons per cm^2 or a percentage of the number of motoneurons present in the cultures maintained with trophic factors (BDNF/NT5 […]). […]
compound,measurement,value
[NH-]c1c[n+](N2CCOCC2)no1 [SIN-1],Number of motoneurons % with respect to the control,125%

# — patent US20060100175A1, “Novel therapeutic use of low molecular weight heparins” (Aventis Pharma S.A., priority 1998, published 2006)
